Like-named read-outs stand apart in the source and are kept apart here.
Experiments:
hA1 = molecular target: T1, hA1 (Homo sapiens, UniProt P30542); assay: hA1 receptor affinity (Ki); format: binding; conditions: list of examples 10-108
T1 sequence (P30542 1-326): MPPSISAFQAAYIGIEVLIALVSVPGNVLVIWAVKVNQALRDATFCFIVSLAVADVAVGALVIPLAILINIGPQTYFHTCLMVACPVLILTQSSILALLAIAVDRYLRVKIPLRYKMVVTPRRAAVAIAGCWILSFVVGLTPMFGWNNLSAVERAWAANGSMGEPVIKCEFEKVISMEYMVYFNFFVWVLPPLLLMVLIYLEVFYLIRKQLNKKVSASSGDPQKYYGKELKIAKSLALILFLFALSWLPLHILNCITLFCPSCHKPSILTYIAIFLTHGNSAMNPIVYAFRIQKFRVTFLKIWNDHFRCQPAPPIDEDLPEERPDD

[1] = molecular target: T2, human adenosine A2A receptor (Homo sapiens, UniProt P29274); assay: [3H]-SCH-58261 binding assay, human adenosine A2A receptor (CHO cell membranes, SPA); conditions: for Ki: [3H]-SCH-58261 displacement, read-out: hA2a Ki; for Select. A1/A2a: ratio hA1 Ki / hA2a Ki
T2 construct: expressed in transfected cells; host or cells: CHO cells, semliki forest virus expression system; washed membranes

[2] = Ki by Cheng-Prussoff, table of preferred compounds

T2 sequence (P29274 whole entry): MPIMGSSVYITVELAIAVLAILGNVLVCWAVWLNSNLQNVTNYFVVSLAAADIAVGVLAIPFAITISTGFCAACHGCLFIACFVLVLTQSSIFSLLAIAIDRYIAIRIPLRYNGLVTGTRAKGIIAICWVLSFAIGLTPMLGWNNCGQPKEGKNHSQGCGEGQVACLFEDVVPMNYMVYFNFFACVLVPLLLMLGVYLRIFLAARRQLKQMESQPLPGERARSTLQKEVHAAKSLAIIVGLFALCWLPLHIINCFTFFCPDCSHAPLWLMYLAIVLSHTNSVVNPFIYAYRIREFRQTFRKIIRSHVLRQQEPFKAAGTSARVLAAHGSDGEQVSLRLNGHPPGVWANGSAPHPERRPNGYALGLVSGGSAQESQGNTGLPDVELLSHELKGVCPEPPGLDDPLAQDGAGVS

SMILES	Ki (hA1) [nM]	Ki [1, 2] [nM]	Select. A1/A2a [1]	Ki ([1]; list of examples 10-108) [nM]
Nc1cc(C(=O)N(Cc2ccccc2)Cc2ccccc2)cn2nc(-c3cccs3)nc12 [Example 64, 8-Amino-2-thiophen-2-yl-[1,2,4]triazolo[1,5-a]pyridine-6-carboxylic acid dibenzylamide]	311	83	3.7	–
CC1CCCN(C(=O)c2cc(N)c3nc(-c4ccco4)nn3c2)C1 (stereo not drawn) [Example 46, (8-Amino-2-furan-2-yl-[1,2,4]triazolo[1,5-a]pyridin-6-yl)-(3-methyl-piperidin-1-yl)-methanone]	2690	–	20.4	131
CC1CCCN1C(=O)c1cc(N)c2nc(-c3ccco3)nn2c1 (stereo not drawn) [Example 37, (8-Amino-2-furan-2-yl-[1,2,4]triazolo[1,5-a]pyridin-6-yl)-(2-methyl-pyrrolidin-1-yl)-methanone]	2940	34.9	84.2	–

— patent US6689790B2, “Substituted triazolopyridine compounds” (Hoffmann-La Roche Inc., priority 2001, dated 2004)
